This note sets out measurements from article PMC6261253 (Nature, 2018).

For one series, the target named is T1, DHX36-AAA (Bos taurus, UniProt Q05B79, K192A/K193A/K194A).
T1 sequence (Q05B79 55-1010 K192A/K193A/K194A): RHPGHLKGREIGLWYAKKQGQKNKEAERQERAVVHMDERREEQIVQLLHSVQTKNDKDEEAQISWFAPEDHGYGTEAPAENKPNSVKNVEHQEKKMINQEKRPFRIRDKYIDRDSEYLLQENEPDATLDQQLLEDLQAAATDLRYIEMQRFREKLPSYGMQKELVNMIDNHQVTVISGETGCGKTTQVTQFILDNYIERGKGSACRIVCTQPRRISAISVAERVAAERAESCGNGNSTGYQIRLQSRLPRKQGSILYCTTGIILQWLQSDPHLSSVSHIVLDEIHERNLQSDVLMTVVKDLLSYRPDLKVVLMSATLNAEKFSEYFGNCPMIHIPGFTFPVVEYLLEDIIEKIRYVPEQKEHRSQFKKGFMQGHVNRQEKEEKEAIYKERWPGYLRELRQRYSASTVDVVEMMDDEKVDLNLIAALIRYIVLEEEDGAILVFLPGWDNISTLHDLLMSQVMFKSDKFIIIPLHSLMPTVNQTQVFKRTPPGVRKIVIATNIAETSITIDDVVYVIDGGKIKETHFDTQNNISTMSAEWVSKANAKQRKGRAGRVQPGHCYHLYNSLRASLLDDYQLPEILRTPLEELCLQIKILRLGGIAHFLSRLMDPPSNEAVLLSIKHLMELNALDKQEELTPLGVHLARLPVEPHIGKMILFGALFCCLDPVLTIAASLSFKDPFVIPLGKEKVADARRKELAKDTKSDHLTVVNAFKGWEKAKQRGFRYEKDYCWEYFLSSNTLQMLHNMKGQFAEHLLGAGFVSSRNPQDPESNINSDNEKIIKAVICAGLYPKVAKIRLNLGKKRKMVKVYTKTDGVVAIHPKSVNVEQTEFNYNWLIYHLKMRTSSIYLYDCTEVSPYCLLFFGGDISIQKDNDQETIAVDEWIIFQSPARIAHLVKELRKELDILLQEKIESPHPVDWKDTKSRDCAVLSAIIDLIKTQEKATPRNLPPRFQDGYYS
Briefly: single-molecule FRET, helicase dissociation from G-quadruplex DNA. It counts as biochemical. The conditions noted are these: ATP added to DHX36-AAA bound to c-Myc G-quadruplex DNA with 3' T9 tail.

Series [1] has as its target T2, DHX36-DSM (crystallization construct) (Bos taurus, UniProt Q05B79 55-1010, E435Y;E436Y;K437Y;K752A;D753A;K755A;del1-54;del111-159).
T2 sequence: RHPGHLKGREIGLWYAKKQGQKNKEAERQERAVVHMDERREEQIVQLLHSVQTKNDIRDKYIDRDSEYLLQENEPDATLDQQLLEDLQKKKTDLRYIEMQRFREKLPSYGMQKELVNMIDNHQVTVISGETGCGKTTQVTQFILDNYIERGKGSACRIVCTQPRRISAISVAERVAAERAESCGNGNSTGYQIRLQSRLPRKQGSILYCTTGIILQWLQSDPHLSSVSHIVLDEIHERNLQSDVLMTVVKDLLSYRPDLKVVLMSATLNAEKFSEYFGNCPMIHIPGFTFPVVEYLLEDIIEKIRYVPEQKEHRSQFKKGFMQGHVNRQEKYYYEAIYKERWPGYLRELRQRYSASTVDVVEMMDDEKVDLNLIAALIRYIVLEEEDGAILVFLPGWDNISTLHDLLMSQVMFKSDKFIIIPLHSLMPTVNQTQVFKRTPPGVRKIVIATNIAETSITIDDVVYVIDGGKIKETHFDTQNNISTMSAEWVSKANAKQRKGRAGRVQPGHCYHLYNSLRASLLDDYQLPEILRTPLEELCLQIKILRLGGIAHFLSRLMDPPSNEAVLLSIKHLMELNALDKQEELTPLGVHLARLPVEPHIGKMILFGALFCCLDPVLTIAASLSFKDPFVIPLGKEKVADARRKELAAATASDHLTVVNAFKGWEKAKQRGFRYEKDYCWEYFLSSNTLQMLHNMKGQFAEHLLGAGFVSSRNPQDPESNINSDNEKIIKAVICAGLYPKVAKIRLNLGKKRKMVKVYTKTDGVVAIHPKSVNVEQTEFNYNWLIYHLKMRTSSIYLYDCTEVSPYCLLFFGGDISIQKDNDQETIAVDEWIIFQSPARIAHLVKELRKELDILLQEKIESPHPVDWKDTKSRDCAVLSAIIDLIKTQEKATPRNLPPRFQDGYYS
Briefly: X-ray crystallography.

As to `Nc1ncnc2c1ncn2[C@@H]1O[C@H](COP(=O)(O)OP(=O)(O)OP(=O)(O)O)[C@@H](O)[C@H]1O` [ATP], on DHX36-AAA, the “single-molecule FRET, helicase dissociation from G-quadruplex DNA” value is “Addition of ATP (red arrow) while DHX36-AAA is displaying repetitive unfolding activity”.

B1: DNAMyc (structured_DNA)
DNA: AGGGTGGGTAGGGTGGGTTTTTTT
As for B1, in series [1], the binding result was “binds”.
